The text below walks through data of patent publication US7411083B2, “Substituted acetic acid derivatives” (Wyeth, priority 2003, dated 2008).

For this test, the target named is T1, recombinant human plasminogen activator inhibitor-1 (PAI-1) (Homo sapiens, UniProt P05121).
T1 construct: purchased Molecular Innovations, Royal Oak, Mich
T1 sequence (P05121 24-402): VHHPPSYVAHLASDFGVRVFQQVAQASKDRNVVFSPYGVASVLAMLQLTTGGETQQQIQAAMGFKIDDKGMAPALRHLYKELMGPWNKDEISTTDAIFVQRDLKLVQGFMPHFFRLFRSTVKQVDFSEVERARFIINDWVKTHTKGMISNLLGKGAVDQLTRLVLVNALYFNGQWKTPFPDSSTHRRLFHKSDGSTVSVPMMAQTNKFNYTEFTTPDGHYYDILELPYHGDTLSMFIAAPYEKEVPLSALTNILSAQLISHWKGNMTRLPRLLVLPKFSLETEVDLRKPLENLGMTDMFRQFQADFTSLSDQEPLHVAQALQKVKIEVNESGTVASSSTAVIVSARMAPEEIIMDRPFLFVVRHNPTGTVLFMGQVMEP
Description: Screening for PAI-1 inhibition (residual tPA activity, Spectrozyme-tPA chromogenic substrate). Format: biochemical. Particulars: test compound at 100 Um; pH 6.6 buffer, 140 nM PAI-1, 70 nM tPA. How it is done:
Screening for PAI-1 inhibition. Test compounds are dissolved in DMSO at a final concentration of 10 Mm, then diluted 100× in physiologic buffer. The inhibitory assay is initiated by the addition of the test compound (1-100 μM final concentration, maximum DMSO concentration of 0.2%) in a Ph 6.6 buffer containing 140 Nm recombinant human plasminogen activator inhibitor-1 (PAI-1; Molecular Innovations, Royal Oak, Mich.). Following a 1 hour incubation at room temperature, 70 Nm of recombinant human tissue plasminogen activator (Tpa) is added, and the combination of the test compound, PAI-1 and Tpa is incubated for an additional 30 minutes. Following the second incubation, Spectrozyme-Tpa (American Diagnostica, Greenwich, Conn.), a chromogenic substrate for Tpa, is added and absorbance read at 405 nm at 0 and 60 minutes. Relative PAI-1 inhibition is equal to the residual Tpa activity in the presence of the test compounds and PAI-1. Control treatments include the complete inhibition of Tpa by PAI-1 at the molar ratio employed (2:1), and the absence of any effect of the test compound on Tpa alone.
For `O=C(O)CO/N=C/c1cccc(-c2cccc(OCc3ccc4ccccc4c3)c2)c1` [Compound 69, [({(1E)-[3′-(2-naphthylmethoxy)-1,1′-biphenyl-3-yl]methylidene}amino)oxy]acetic acid], the inhibition at 100 µM came out at 53%.

In the case of `Cc1ccc(COc2cccc(-c3cccc(/C=N/OCC(=O)O)c3)c2)cc1` [Compound 70, {[((1E)-{3′-[(4-methylbenzyl)oxy]-1,1′-biphenyl-3-yl}methylidene)amino]oxy}acetic acid], the inhibition at 100 µM turned out to be 83%. With `Cc1cccc(COc2cccc(-c3cccc(/C=N/OCC(=O)O)c3)c2)c1` [Compound 71, {[((1E)-{3′-[(3-methylbenzyl)oxy]-1,1′-biphenyl-3-yl}methylidene)amino]oxy}acetic acid], the inhibition at 100 µM was determined as 85%. The value for `O=C(O)CO/N=C/c1cccc(-c2cccc(OCc3c(Cl)cccc3Cl)c2)c1` [Compound 72, {[((1E)-{3′-[(2,6-dichlorobenzyl)oxy]-1,1′-biphenyl-3-yl}methylidene)amino]oxy}acetic acid] was 88%; that for `O=C(O)CO/N=C/c1cccc(-c2ccc(OCc3ccc(C(F)(F)F)cc3)cc2)c1` [Compound 73, ({[(1E)-(4′-{[4-(trifluoromethyl)benzyl]oxy}-1,1′-biphenyl-3-yl)methylidene]amino}oxy)acetic acid] was 59%.

Take `CC(C)(C)c1ccc(COc2ccc(-c3cccc(/C=N/OCC(=O)O)c3)cc2)cc1` [Compound 74, {[((1E)-{4′-[(4-tert-butylbenzyl)oxy]-1,1′-biphenyl-3-yl}methylidene)amino]oxy}acetic acid]: the inhibition at 100 µM was 34%. The value for `O=C(O)CO/N=C/c1cccc(-c2ccc(OCc3ccc(Br)cc3)cc2)c1` [Compound 75, {[((1E)-{4′-[(4-bromobenzyl)oxy]-1,1′-biphenyl-3-yl}methylidene)amino]oxy}acetic acid] was 75%. The value for `O=C(O)CO/N=C/c1cccc(-c2ccc(OCc3cc(C(F)(F)F)cc(C(F)(F)F)c3)cc2)c1` [Compound 76, ({[(1E)-(4′-{[3,5-bis(trifluoromethyl)benzyl]oxy}-1,1′-biphenyl-3-yl)methylidene]amino}oxy)acetic acid] was 73%; that for `O=C(O)CO/N=C/c1cccc(-c2ccc(OCc3cccc(Br)c3)cc2)c1` [Compound 77, {[((1E)-{4′-[(3-bromobenzyl)oxy]-1,1′-biphenyl-3-yl}methylidene)amino]oxy}acetic acid] was 85%; that for `O=C(O)CO/N=C/c1cccc(-c2ccc(OCc3cccc(Cl)c3)cc2)c1` [Compound 78, {[((1E)-{4′-[(3-chlorobenzyl)oxy]-1,1′-biphenyl-3-yl}methylidene)amino]oxy}acetic acid] was 23%. In the case of `O=C(O)CO/N=C/c1cccc(-c2ccc(OCc3ccccc3)cc2)c1` [Compound 79, [({(1E)-[4′-(benzyloxy)-1,1′-biphenyl-3-yl]methylidene}amino)oxy]acetic acid] it was 53%.

Regarding `O=C(O)CO/N=C/c1cccc(-c2ccc(OCc3cccc(C(F)(F)F)c3)cc2)c1` [Compound 80, ({[(1E)-(4′-{[3-(trifluoromethyl)benzyl]oxy}-1,1′-biphenyl-3-yl)methylidene]amino}oxy)acetic acid], the inhibition at 100 µM stood at 78%. For `O=C(O)CO/N=C/c1cccc(-c2ccc(OCc3ccc(Cl)cc3)cc2)c1` [Compound 81, {[((1E)-{4′-[(4-chlorobenzyl)oxy]-1,1′-biphenyl-3-yl}methylidene)amino]oxy}acetic acid], the inhibition at 100 µM turned out to be 28%. `O=C(O)CO/N=C/c1cccc(-c2ccc(OCc3ccccc3Cl)cc2)c1` [Compound 82, {[((1E)-{4′-[(2-chlorobenzyl)oxy]-1,1′-biphenyl-3-yl}methylidene)amino]oxy}acetic acid]: the inhibition at 100 µM worked out at 89%. As for `O=C(O)CO/N=C/c1cccc(-c2ccc(OCc3ccc(Cl)c(Cl)c3)cc2)c1` [Compound 83, {[((1E)-{4′-[(3,4-dichlorobenzyl)oxy]-1,1′-biphenyl-3-yl}methylidene)amino]oxy}acetic acid], the inhibition at 100 µM was 57%.

On to `O=C(O)CO/N=C/c1cccc(-c2ccc(OCc3ccc4ccccc4c3)cc2)c1` [Compound 84, [({(1E)-[4′-(2-naphthylmethoxy)-1,1′-biphenyl-3-yl]methylidene}amino)oxy]acetic acid], for which the inhibition at 100 µM turned out to be 30%. On to `Cc1ccc(COc2ccc(-c3cccc(/C=N/OCC(=O)O)c3)cc2)cc1` [Compound 85, {[((1E)-{4′-[(4-methylbenzyl)oxy]-1,1′-biphenyl-3-yl}methylidene)amino]oxy}acetic acid], for which the inhibition at 100 µM was determined as 34%.

Turning to `Cc1cccc(COc2ccc(-c3cccc(/C=N/OCC(=O)O)c3)cc2)c1` [Compound 86, {[((1E)-{4′-[(3-methylbenzyl)oxy]-1,1′-biphenyl-3-yl}methylidene)amino]oxy}acetic acid], the inhibition at 100 µM turned out to be 22%. The value for `O=C(O)CO/N=C/c1cccc(-c2ccc(OCc3c(Cl)cccc3Cl)cc2)c1` [Compound 87, {[((1E)-{4′-[(2,6-dichlorobenzyl)oxy]-1,1′-biphenyl-3-yl}methylidene)amino]oxy}acetic acid] was 85%. The value for `O=C(O)CO/N=C/c1ccc(-c2cccc(OCc3ccc(C(F)(F)F)cc3)c2)cc1` [Compound 88, ({[(1E)-(3′-{[4-(trifluoromethyl)benzyl]oxy}-1,1′-biphenyl-4-yl)methylidene]amino}oxy)acetic acid] was 34%; that for `CC(C)(C)c1ccc(COc2cccc(-c3ccc(/C=N/OCC(=O)O)cc3)c2)cc1` [Compound 89, {[((1E)-{3′-[(4-tert-butylbenzyl)oxy]-1,1′-biphenyl-4-yl}methylidene)amino]oxy}acetic acid] was 57%; that for `O=C(O)CO/N=C/c1ccc(-c2cccc(OCc3cc(C(F)(F)F)cc(C(F)(F)F)c3)c2)cc1` [Compound 90, ({[(1E)-(3′-{[3,5-bis(trifluoromethyl)benzyl]oxy}-1,1′-biphenyl-4-yl)methylidene]amino}oxy)acetic acid] was 30%. Turning to `O=C(O)CO/N=C/c1ccc(-c2cccc(OCc3cccc(Br)c3)c2)cc1` [Compound 91, {[((1E)-{3′-[(3-bromobenzyl)oxy]-1,1′-biphenyl-4-yl}methylidene)amino]oxy}acetic acid], the inhibition at 100 µM stood at 77%. On to `O=C(O)CO/N=C/c1ccc(-c2cccc(OCc3cccc(Cl)c3)c2)cc1` [Compound 92, {[((1E)-{3′-[(3-chlorobenzyl)oxy]-1,1′-biphenyl-4-yl}methylidene)amino]oxy}acetic acid], for which the inhibition at 100 µM worked out at 76%.

Regarding `O=C(O)CO/N=C/c1ccc(-c2cccc(OCc3ccccc3)c2)cc1` [Compound 93, [({(1E)-[3′-(benzyloxy)-1,1′-biphenyl-4-yl]methylidene}amino)oxy]acetic acid], the inhibition at 100 µM is 85%. In the case of `O=C(O)CO/N=C/c1ccc(-c2cccc(OCc3cccc(C(F)(F)F)c3)c2)cc1` [Compound 94, ({[(1E)-(3′-{[3-(trifluoromethyl)benzyl]oxy}-1,1′-biphenyl-4-yl)methylidene]amino}oxy)acetic acid] it was 74%; in that of `O=C(O)CO/N=C/c1ccc(-c2cccc(OCc3ccc(Cl)cc3)c2)cc1` [Compound 95, {[((1E)-{3′-[(4-chlorobenzyl)oxy]-1,1′-biphenyl-4-yl}methylidene)amino]oxy}acetic acid], 27%. The value for `O=C(O)CO/N=C/c1ccc(-c2cccc(OCc3ccccc3Cl)c2)cc1` [Compound 96, {[((1E)-{3′-[(2-chlorobenzyl)oxy]-1,1′-biphenyl-4-yl}methylidene)amino]oxy}acetic acid] was 61%; that for `O=C(O)CO/N=C/c1ccc(-c2cccc(OCc3ccc(Cl)c(Cl)c3)c2)cc1` [Compound 97, {[((1E)-{3′-[(3,4-dichlorobenzyl)oxy]-1,1′-biphenyl-4-yl}methylidene)amino]oxy}acetic acid] was 65%. The value for `O=C(O)CO/N=C/c1ccc(-c2cccc(OCc3ccc4ccccc4c3)c2)cc1` [Compound 98, [({(1E)-[3′-(2-naphthylmethoxy)-1,1′-biphenyl-4-yl]methylidene}amino)oxy]acetic acid] was 46%; that for `Cc1ccc(COc2cccc(-c3ccc(/C=N/OCC(=O)O)cc3)c2)cc1` [Compound 99, {[((1E)-{3′-[(4-methylbenzyl)oxy]-1,1′-biphenyl-4-yl}methylidene)amino]oxy}acetic acid] was 84%. In the case of `Cc1cccc(COc2cccc(-c3ccc(/C=N/OCC(=O)O)cc3)c2)c1` [Compound 100, {[((1E)-{3′-[(3-methylbenzyl)oxy]-1,1′-biphenyl-4-yl}methylidene)amino]oxy}acetic acid], the inhibition at 100 µM was 63%. Consider `O=C(O)CO/N=C/c1ccc(-c2cccc(OCc3c(Cl)cccc3Cl)c2)cc1` [Compound 101, {[((1E)-{3′-[(2,6-dichlorobenzyl)oxy]-1,1′-biphenyl-4-yl}methylidene)amino]oxy}acetic acid], for which the inhibition at 100 µM is 10%. In the case of `CC(C)(C)c1ccc(COc2ccc(-c3ccc(/C=N/OCC(=O)O)cc3)cc2)cc1` [Compound 102, {[((1E)-{4′-[(4-tert-butylbenzyl)oxy]-1,1′-biphenyl-4-yl}methylidene)amino]oxy}acetic acid], the inhibition at 100 µM came to 26%.

As a reminder, the inhibition is how much of the control response was suppressed.
